Measured values published in ChEMBL document CHEMBL1149425, “A novel class of sodium/calcium exchanger inhibitors: design, synthesis, and structure-activity relationships of 4-phenyl-3-(piperidin-4-yl)-3,4-dihydro-2(1H)-quinazolinone derivatives” (Bioorg Med Chem Lett, 2006).
Peptide text beside a SMILES is read from it.

molecular target: Sodium/calcium exchanger 1 (Cavia porcellus) (UniProt P48766); test: Inhibitory activity against Sodium/Calcium exchanger in isolated guinea pig left atria
Sequence (P48766 whole entry, looked up): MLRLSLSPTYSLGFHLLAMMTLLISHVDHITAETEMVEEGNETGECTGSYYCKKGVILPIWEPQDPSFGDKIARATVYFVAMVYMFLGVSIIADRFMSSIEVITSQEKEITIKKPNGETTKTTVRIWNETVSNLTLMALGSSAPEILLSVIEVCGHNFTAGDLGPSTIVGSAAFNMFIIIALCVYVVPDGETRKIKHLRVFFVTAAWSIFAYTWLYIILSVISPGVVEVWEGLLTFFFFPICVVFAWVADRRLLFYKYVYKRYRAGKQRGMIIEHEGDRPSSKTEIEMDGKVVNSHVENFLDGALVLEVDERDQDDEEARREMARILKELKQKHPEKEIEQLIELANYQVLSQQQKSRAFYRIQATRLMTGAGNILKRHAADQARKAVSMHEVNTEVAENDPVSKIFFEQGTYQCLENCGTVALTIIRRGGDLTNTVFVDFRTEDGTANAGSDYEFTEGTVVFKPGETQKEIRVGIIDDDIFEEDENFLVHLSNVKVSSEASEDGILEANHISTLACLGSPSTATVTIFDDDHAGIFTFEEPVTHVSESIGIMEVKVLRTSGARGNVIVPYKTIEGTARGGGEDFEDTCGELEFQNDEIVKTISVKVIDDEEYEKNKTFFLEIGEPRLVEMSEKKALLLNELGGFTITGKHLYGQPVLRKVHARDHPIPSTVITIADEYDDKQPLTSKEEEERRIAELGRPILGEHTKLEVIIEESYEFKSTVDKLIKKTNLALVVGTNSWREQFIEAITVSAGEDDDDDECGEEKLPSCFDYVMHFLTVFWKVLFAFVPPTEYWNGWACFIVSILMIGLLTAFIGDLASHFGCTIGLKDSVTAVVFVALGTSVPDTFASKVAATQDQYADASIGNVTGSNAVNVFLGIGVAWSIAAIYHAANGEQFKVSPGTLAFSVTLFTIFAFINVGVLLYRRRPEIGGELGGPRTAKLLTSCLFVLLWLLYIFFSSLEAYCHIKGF

Row | IC30 | Structure (SMILES)
1 | 390 nM | O=C1Nc2ccccc2C(c2ccccc2)N1C1CCN(Cc2ccccn2)CC1 (stereo not given)
2 | 480 nM | O=C1Nc2ccccc2C(c2ccccc2)N1C1CCN(Cc2ccncc2)CC1 (stereo not given)
3 | > 10000 nM | COc1cc(CN2CCC(N3C(=O)Nc4ccccc4C3c3ccccc3)CC2)cc(OC)c1 (stereo not given)
4 | 8300 nM | O=C1Nc2ccccc2C(c2ccccc2)N1C1CCN(Cc2ccco2)CC1 (stereo not given)
5 | 250 nM | COc1ccc(CN2CCC(N3C(=O)Nc4ccccc4C3c3ccccc3)CC2)cc1 (stereo not given)
6 | 580 nM | CCOc1cccc(CN2CCC(N3C(=O)Nc4ccccc4C3c3ccccc3)CC2)c1 (stereo not given)
7 | 8.4 nM | COc1cccc(CN2CCC(N3C(=O)Nc4ccccc4C3c3ccccc3)CC2)c1 (stereo not given)

Continued, molecule first:

Row | Structure (SMILES) | IC30
8 | O=C1Nc2ccccc2C(c2ccccc2)N1C1CCN(Cc2cccc(Cl)c2)CC1 (stereo not given) | 540 nM
9 | O=C1Nc2ccccc2C(c2ccccc2)N1C1CCN(Cc2cccnc2)CC1 (stereo not given) | 160 nM
10 | O=C1Nc2ccccc2C(c2ccccc2)N1C1CCN(Cc2ccccc2)CC1 (stereo not given) | 17 nM
11 | O=C1Nc2ccccc2C(c2ccccc2)N1C1CCN(Cc2ccoc2)CC1 (stereo not given) | 17 nM
12 | COCc1cccc(CN2CCC(N3C(=O)Nc4ccccc4C3c3ccccc3)CC2)c1 (stereo not given) | 490 nM
13 | O=C1Nc2ccccc2C(c2ccccc2)N1C1CCN(Cc2ccccc2Cl)CC1 (stereo not given) | 9000 nM
14 | COc1cc(CN2CCC(N3C(=O)Nc4ccccc4C3c3ccccc3)CC2)cc(OC)c1OC (stereo not given) | > 10000 nM
15 | O=C1Nc2ccccc2C(c2ccccc2)N1C1CCN(Cc2ccsc2)CC1 (stereo not given) | 3900 nM
16 | Cc1cccc(CN2CCC(N3C(=O)Nc4ccccc4C3c3ccccc3)CC2)c1 (stereo not given) | 560 nM
17 | O=C1Nc2ccccc2C(c2ccccc2)N1C1CCN(Cc2cccs2)CC1 (stereo not given) | 1700 nM
18 | O=C1Nc2ccccc2C(c2ccccc2)N1C1CCN(Cc2ccc(Cl)cc2)CC1 (stereo not given) | 620 nM
19 | COc1ccccc1CN1CCC(N2C(=O)Nc3ccccc3C2c2ccccc2)CC1 (stereo not given) | > 10000 nM
20 | CSCC[C@H](NC(=O)[C@@H](N)C(C)C)C(=O)N[C@@H](CCCN=C(N)N)C(=O)N[C@@H](Cc1ccccc1)C(N)=O (H-VMRF-NH2) | 10000 nM
